The text below walks through data of US20070207993A1, “Molybdenum carbonyl complexes for treating rheumatoid arthritis and other inflammatory diseases” (Alfama - Investigacao e Desenvolvimetno De Productos …, priority 2005, published 2007).

A short description of data set [1]: Spontaneous CO release from suspensions (gas chromatography, TCD). In kind it is physicochemical. The settings on record: suspension in RPMI with 10% FBS, 37° C., dark. The procedure: CO detection was carried out by Gas Chromatography using a thermal conductivity detector (TCD) for the quantification of CO and CO2. The experiments were done under an initial atmosphere of reconstituted air, free of CO and CO2. […] […] Samples were withdrawn with gas-tight Hamilton syringes after homogenization of the head-space at given time intervals, preferably 2 hours, 4 hours and 6 hours. […] The volumes of CO released are usually in the range between 0.5-3 mL.
As a possible result of the use of suspensions, the number of CO equivalents released in RPMI varied slightly. As an example of the possible variations, the average of eight independent assays done with suspensions of Compound I.1 is given in Table 2.

The next data set deals with rat arthritis model. The settings on record: previously shown, US 2003/0068387; cited from earlier work.
Data set [2] can be described thus: CO release in the presence of reactive oxygen species (TBHP, H2O2, KO2). In kind it is physicochemical. The settings on record: 25° C., dark; for Equivalents of CO2 released, H2O2 / Equivalents of CO released, H2O2: H2O2 100:1, water; for Equivalents of CO2 released, TBHP / Equivalents of CO released, TBHP: TBHP 100:1, water. As to the method:
The studies were done using the same method and apparatus described in Example 7 with the following modifications: RPMI/FBS was replaced by double distilled water in the experiments with H2O2 and TBHP and by tetrahydrofuran (THF) for the experiments with KO2; the temperature was kept at 25° C. The concentration of Compound I.1 was approximately 1 mM and the ration of concentrations of H2O2, TBHP and KO2 relative to Compound I.1 was 100:1. The amount of CO2 generated was also measured in the same experiment to ascertain the concurrent oxidation of coordinated CO. TBHP was added from a 70% aqueous solution and H2O2 from a 30% aqueous solution.

On to `O=[C][Mo]([I])([C]=O)([C]=O)([C]=O)[C]=O` [Compound I.18, [NH4](diglyme)3[Mo(CO)5I]], for which the “Equivalents of CO released, RPMI” value is on record as 0.55 equivalents of CO in data set [1] (2 hours), 0.73 equivalents of CO in data set [1] (4 hours) and 0.79 equivalents of CO in data set [1] (6 hours).
For `O=[C][Mo]([I])([C]=O)([C]=O)([C]=O)[C]=O` [Compound I.16, K(diglyme)3 [Mo(CO)5I]], in that order: 0.94 equivalents of CO, 1.20 equivalents of CO and 1.28 equivalents of CO.
`ClCCl` [Methylene chloride]: in the data set on rat arthritis model, the “effects in a rat arthritis model” value is on record as “beneficial effects”.
For `O=[C][Mo]([I])([C]=O)([C]=O)([C]=O)[C]=O` [Compound I.6], the entries for the “Equivalents of CO released, RPMI” value in data set [1] (2 hours), in data set [1] (4 hours) and in data set [1] (6 hours) were 0.42 equivalents of CO, 1.00 equivalents of CO and 1.25 equivalents of CO, respectively. Further, the “Equivalents of CO2 released, H2O2” value was determined as 0.14 equivalents in data set [2] (1 h), 0.44 equivalents in data set [2] (3 h), 0.51 equivalents in data set [2] (5 h) and 0.35 equivalents in data set [2] (24 h). The “Equivalents of CO released, H2O2” value amounted to 1.31 equivalents in data set [2] (1 h), 3.04 equivalents in data set [2] (3 h), 3.20 equivalents in data set [2] (5 h) and 1.91 equivalents in data set [2] (24 h). Further, the “Equivalents of CO2 released, TBHP” value in data set [2] (1 h) was determined as 0.00 equivalents; in data set [2] (3 h) it was 0.24 equivalents; in data set [2] (5 h), 0.55 equivalents; in data set [2] (24 h), 0.99 equivalents. For the same molecule, the “Equivalents of CO released, TBHP” value in data set [2] (1 h) amounted to 0.48 equivalents; in data set [2] (3 h) it was 1.75 equivalents; in data set [2] (5 h), 3.51 equivalents; in data set [2] (24 h), 4.29 equivalents.
